{
  "source": "BindingDB's records for patent US20230278983",
  "about": "(Universite Claude Bernard Lyon 1, 2023)",
  "target": "Casein kinase II subunit alpha (Homo sapiens, UniProt P68400)",
  "sequence (P68400 whole entry)": "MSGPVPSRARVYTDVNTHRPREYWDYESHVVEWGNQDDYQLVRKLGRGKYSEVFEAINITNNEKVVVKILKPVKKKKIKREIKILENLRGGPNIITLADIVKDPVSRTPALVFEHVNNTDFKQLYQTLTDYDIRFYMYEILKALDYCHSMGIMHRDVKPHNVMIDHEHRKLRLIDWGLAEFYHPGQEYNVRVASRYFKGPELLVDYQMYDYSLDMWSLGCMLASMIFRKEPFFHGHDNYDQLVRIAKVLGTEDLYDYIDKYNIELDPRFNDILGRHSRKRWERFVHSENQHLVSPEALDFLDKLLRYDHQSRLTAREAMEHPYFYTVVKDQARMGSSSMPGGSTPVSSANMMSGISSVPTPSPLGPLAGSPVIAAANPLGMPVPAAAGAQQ",
  "assay": "Radiometric Kinase Assay",
  "data": [
    {"compound": "CC(C)COC(=O)c1[nH]c2ccc(F)cc2c1-c1cn(CC2CCN(CCNS(=O)(=O)c3ccc(-c4ccccc4C#N)cc3)CC2)nn1", "note": "[US20230278983, Code AB1076]", "values": [
      {"measurement": "IC50", "value": 46, "unit": "nM"}
    ]}
  ]
}
